Results: ChEMBL document CHEMBL1201862, “PubChem BioAssay data set” (2004)
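48-hour exposure; five concentrations; linearly interpolated endpoints. GI50: concentration for 50% inhibition of growth.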 Active and inactive are the calls of the source. No stated cut-off is given here; in the data, active = GI50 up to about 1.1 µM and inactive = higher.

Tests used:
Test in all cases: growth of human tumour cells (NCI), 48 h
[1] = test system: SF-295
[2] = test system: M14
[3] = test system: SW-620
[4] = test system: KM12
[5] = test system: EKVX
[6] = test system: K562
[7] = test system: HL-60
[8] = test system: A549
[9] = test system: UO-31
[10] = test system: COLO 205
[11] = test system: NCI-H460
[12] = test system: TK-10
[13] = test system: SF-268
[14] = test system: IGROV-1
[15] = test system: HOP-92
[16] = test system: RXF 393
[17] = test system: SNB-75

Measured: GI50

O=C(CCc1cc(-c2ccccc2)nc(S)n1)N(Cc1ccccc1)Cc1ccccc1
inactive: [1] > 100 µM | [2] > 100 µM | [3] > 100 µM | [4] > 100 µM | [5] > 100 µM | [6] > 100 µM | [7] > 100 µM | [8] > 100 µM | [9] > 100 µM | [10] > 100 µM | [11] > 100 µM | [12] > 100 µM | [13] > 100 µM | [14] > 100 µM | [15] 97.3 µM

COC1CC(OS(=O)(=O)c2ccc([N+](=O)[O-])cc2)C(OC(=O)c2ccccc2)C(C)O1 (centres undefined)
inactive: [16] 39.1 µM | [1] > 100 µM | [2] > 100 µM | [3] > 100 µM | [4] > 100 µM | [6] > 100 µM | [7] > 100 µM | [8] > 100 µM | [10] > 100 µM | [11] > 100 µM | [12] > 100 µM | [13] 82.2 µM | [14] > 100 µM | [15] 55.2 µM

NCCn1ccc(NC(c2ccccc2)(c2ccccc2)c2ccccc2)nc1=O
inactive: [17] 16.7 µM | [16] 4.08 µM | [1] 19.8 µM | [3] 19.1 µM | [4] 21.7 µM | [5] 21.3 µM | [6] 20.1 µM | [7] 17.7 µM | [8] 25.2 µM | [9] > 100 µM | [10] 29.8 µM | [11] 20.3 µM | [12] 30 µM | [13] 16.3 µM | [14] 40.7 µM | [15] 13.4 µM

CCOC(=O)CC1COc2ccc3c(c21)OCO3 (centres undefined)
inactive: [17] > 100 µM | [1] > 100 µM | [2] > 100 µM | [3] > 100 µM | [4] > 100 µM | [5] > 100 µM | [6] > 100 µM | [7] > 100 µM | [8] > 100 µM | [9] > 100 µM | [10] > 100 µM | [11] > 100 µM | [12] > 100 µM | [14] > 100 µM | [15] > 100 µM

O=C1CCC(=O)C(C(=O)CCC(=O)Nc2cccc(Cl)c2)C1 (centres undefined)
inactive: [17] > 100 µM | [16] > 100 µM | [1] > 100 µM | [2] > 100 µM | [3] > 100 µM | [4] > 100 µM | [5] > 100 µM | [6] > 100 µM | [7] > 100 µM | [8] > 100 µM | [9] > 100 µM | [10] > 100 µM | [11] > 100 µM | [12] > 100 µM | [14] > 100 µM | [15] > 100 µM

COC(=O)CSc1nnc(-c2ccccc2)[nH]1
inactive: [17] 40.5 µM | [1] > 100 µM | [2] > 100 µM | [3] > 100 µM | [4] > 100 µM | [5] > 100 µM | [6] > 100 µM | [7] > 100 µM | [8] > 100 µM | [9] > 100 µM | [10] > 100 µM | [11] > 100 µM | [12] > 100 µM | [13] > 100 µM | [14] > 100 µM | [15] > 100 µM

COc1ccc(C2S/C(=C\c3ccccc3O)C(=O)N2NC(=O)Cc2ccccc2)cc1 (centres undefined)
inactive: [17] 57.3 µM | [16] 61.7 µM | [1] > 100 µM | [2] > 100 µM | [3] > 100 µM | [4] > 100 µM | [6] 68.5 µM | [7] 60.5 µM | [8] 98.6 µM | [9] > 100 µM | [10] > 100 µM | [11] > 100 µM | [12] > 100 µM | [13] > 100 µM | [14] > 100 µM | [15] > 100 µM

COC(=O)C(CC(=O)Nc1ccc(Cl)c(Cl)c1)C(=O)C(=O)NC1C2CC3CC(C2)CC1C3 (centres undefined)
inactive: [16] > 100 µM | [1] > 100 µM | [2] > 100 µM | [3] > 100 µM | [4] > 100 µM | [5] 54.6 µM | [6] > 100 µM | [7] > 100 µM | [8] > 100 µM | [9] > 100 µM | [10] > 100 µM | [11] > 100 µM | [12] > 100 µM | [13] > 100 µM | [14] > 100 µM | [15] > 100 µM

COc1ccc(C2NC3=C(CCCC3)N2)cc1
inactive: [17] 58.7 µM | [1] 78 µM | [2] 37.4 µM | [4] 54.3 µM | [7] 29 µM | [8] > 100 µM | [9] 77.6 µM | [10] 34 µM | [11] 45 µM | [12] > 100 µM | [13] > 100 µM | [14] > 100 µM | [15] 54.2 µM

CCCCCCCCCCC(O)CCCCCCC(=O)O (centres undefined)
inactive: [17] 42.5 µM | [16] 34.1 µM | [1] 27.1 µM | [2] 19.1 µM | [3] 29.9 µM | [4] 16.3 µM | [5] 31.7 µM | [6] 13.2 µM | [7] 8.05 µM | [8] 18.2 µM | [9] 29.9 µM | [10] 15.7 µM | [11] 16.3 µM | [12] 65.9 µM | [13] 77.4 µM | [14] 18.2 µM | [15] 18.1 µM

O=C(OCc1ccccc1)N1N=NC2C3CC(OCc4ccccc4)(OCc4ccccc4)C(O3)C21 (centres undefined)
inactive: [17] 24.3 µM | [16] 9.64 µM | [1] 22.1 µM | [2] 23.6 µM | [3] 20.6 µM | [4] 36.3 µM | [6] 11 µM | [7] 7.59 µM | [8] 17.3 µM | [9] 4.65 µM | [10] 23.1 µM | [11] 39.9 µM | [13] 22.4 µM | [14] 49.5 µM | [15] 12.6 µM

Cc1cc(NS(=O)(=O)c2ccc(Nc3c4ccccc4nc4c(C(=O)N5CCN(CCOS(C)(=O)=O)CC5)cccc34)cc2)no1
inactive: [17] > 100 µM | [16] > 100 µM | [1] > 100 µM | [2] > 100 µM | [4] > 100 µM | [6] 37.5 µM | [7] > 100 µM | [8] > 100 µM | [9] > 100 µM | [10] > 100 µM | [11] > 100 µM | [12] > 100 µM | [13] > 100 µM | [14] > 100 µM | [15] > 100 µM

O=C1C(=O)N(c2ccc(Cl)cc2)C(=O)/C(=N/c2cccc3c(=O)[nH][nH]c(=O)c23)C1c1nc2ccccc2o1 (centres undefined)
inactive: [17] > 100 µM | [1] > 100 µM | [2] > 100 µM | [3] > 100 µM | [4] > 100 µM | [5] > 100 µM | [6] > 100 µM | [7] > 100 µM | [8] > 100 µM | [9] > 100 µM | [10] > 100 µM | [11] > 100 µM | [12] > 100 µM | [13] > 100 µM | [14] > 100 µM | [15] 84.9 µM

COC(=O)/C(=C/c1ccc(OC)cc1)C(C(=O)O)=C(C)C
inactive: [16] > 100 µM | [1] > 100 µM | [2] > 100 µM | [3] > 100 µM | [4] > 100 µM | [5] > 100 µM | [6] > 100 µM | [7] > 100 µM | [8] > 100 µM | [9] > 100 µM | [10] > 100 µM | [11] > 100 µM | [12] > 100 µM | [13] > 100 µM | [14] > 100 µM | [15] > 100 µM

CC1OC(OCC2OC(Oc3c(-c4ccc(O)cc4)oc4cc(O)cc(O)c4c3=O)C(OC3OCC(O)(CO)C3O)C(O)C2O)C(O)C(O)C1O (centres undefined)
inactive: [17] > 100 µM | [1] > 100 µM | [2] > 100 µM | [3] 79.1 µM | [4] > 100 µM | [5] > 100 µM | [6] 29.4 µM | [7] 21.2 µM | [8] > 100 µM | [9] > 100 µM | [10] 38.1 µM | [11] 66.4 µM | [12] > 100 µM | [13] > 100 µM | [14] > 100 µM | [15] > 100 µM

CCOC(=O)C1S/C(=N\c2ccccc2)N=C1C (centres undefined)
inactive: [17] 26.9 µM | [16] > 100 µM | [1] > 100 µM | [3] > 100 µM | [4] > 100 µM | [5] 64.1 µM | [6] 40.7 µM | [7] 59.6 µM | [8] 55.5 µM | [9] 53.3 µM | [10] > 100 µM | [11] 79.1 µM | [12] > 100 µM | [13] 60.1 µM | [14] > 100 µM | [15] 22.3 µM

NC(C(=O)O)c1ccc(C(=O)O)cc1 (centres undefined)
inactive: [17] > 100 µM | [16] > 100 µM | [1] > 100 µM | [2] > 100 µM | [3] > 100 µM | [4] > 100 µM | [5] > 100 µM | [6] > 100 µM | [7] > 100 µM | [8] > 100 µM | [9] > 100 µM | [10] > 100 µM | [11] > 100 µM | [12] > 100 µM | [13] > 100 µM | [14] > 100 µM
